Data reported in the supplement of paper PMC10307832.

What was measured:
Experiment in all cases: relative viability (nuclei count vs DMSO), 5 days (fraction); higher = more cells survive
NVP-TAE684 + Pictilisib = compound: COc1cc(N2CCC(N3CCN(C)CC3)CC2)ccc1Nc1ncc(Cl)c(Nc2ccccc2S(=O)(=O)C(C)C)n1 [NVP-TAE684] + CS(=O)(=O)N1CCN(Cc2cc3nc(-c4cccc5[nH]ncc45)nc(N4CCOCC4)c3s2)CC1 [Pictilisib] (partner 1 µM)
Method in brief: (§1)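 A single step with final 0.05% Triton X-100, 1% formaldehyde and 1 ug/ml Hoechst fixed the cells and stained nuclei 5 days after treatment. Lung cancer cell lines in 1536-well plates had been treated by pin tool the day after seeding with one drug alone or a fixed anchor-drug dose plus five library-drug doses (not always all listed) in √10 steps, and nuclei were counted on 4× images. Relative viability is the ratio of nuclei in treated wells to nuclei in vehicle wells, taken as the median of duplicate plates.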

NVP-TAE684 + Pemetrexed = compound: COc1cc(N2CCC(N3CCN(C)CC3)CC2)ccc1Nc1ncc(Cl)c(Nc2ccccc2S(=O)(=O)C(C)C)n1 [NVP-TAE684] + Nc1nc2[nH]cc(CCc3ccc(C(=O)N[C@@H](CCC(=O)O)C(=O)O)cc3)c2c(=O)[nH]1 [Pemetrexed] (partner 0.2 µM)
Method in brief: as §1

[1] = compound: C1=CC=C2C(=C1)N=C(S2)C(C#N)C3=NC(=NC=C3)NCCC4=CN=CC=C4 + C[C@@H](Oc1cc(-c2cnn(C3CCNCC3)c2)cnc1N)c1c(Cl)ccc(F)c1Cl [Crizotinib] (partner 1 µM)
Method in brief: as §1

Vandetanib + Navitoclax = compound: COc1cc2/c(=N/c3ccc(Br)cc3F)nc[nH]c2cc1OCC1CCN(C)CC1 [Vandetanib] + CC1(C)CCC(c2ccc(Cl)cc2)=C(CN2CCN(c3ccc(C(=O)NS(=O)(=O)c4ccc(N[C@H](CCN5CCOCC5)CSc5ccccc5)c(S(=O)(=O)C(F)(F)F)c4)cc3)CC2)C1 [Navitoclax] (partner 0.5 µM)
Method in brief: as §1

Vandetanib + Phenformin = compound: COc1cc2/c(=N/c3ccc(Br)cc3F)nc[nH]c2cc1OCC1CCN(C)CC1 [Vandetanib] + N=C(N)NC(=N)NCCc1ccccc1 [Phenformin] (partner 250 µM)
Method in brief: as §1

Cell Line: UMC-11
- relative viability (NVP-TAE684 + Pictilisib; first compound 0.2 µM): 0.979
- relative viability (NVP-TAE684 + Pictilisib; first compound 2 µM): 0.586
- relative viability (NVP-TAE684 + Pemetrexed; first compound 0.2 µM): 0.736
- relative viability (NVP-TAE684 + Pemetrexed; first compound 0.6325 µM): 0.735
- relative viability (NVP-TAE684 + Pemetrexed; first compound 2 µM): 0.347
- relative viability ([1]; first compound 0.005 µM): 0.487
- relative viability ([1]; first compound 0.01581 µM): 0.561
- relative viability ([1]; first compound 0.05 µM): 0.602
- relative viability ([1]; first compound 0.1581 µM): 0.654
- relative viability ([1]; first compound 0.5 µM): 0.5
- relative viability (Vandetanib + Navitoclax; first compound 0.02 µM): 0.312
- relative viability (Vandetanib + Navitoclax; first compound 0.06325 µM): 0.311
- relative viability (Vandetanib + Navitoclax; first compound 0.2 µM): 0.286
- relative viability (Vandetanib + Navitoclax; first compound 0.6325 µM): 0.308
- relative viability (Vandetanib + Navitoclax; first compound 2 µM): 0.309
- relative viability (Vandetanib + Phenformin; first compound 0.02 µM): 0.3
- relative viability (Vandetanib + Phenformin; first compound 0.06325 µM): 0.308
- relative viability (Vandetanib + Phenformin; first compound 0.2 µM): 0.33
- relative viability (Vandetanib + Phenformin; first compound 0.6325 µM): 0.289
- relative viability (Vandetanib + Phenformin; first compound 2 µM): 0.335
